# Measured values: PMC9718554, “Discovery of a fragment hit compound targeting D-Ala:D-Ala ligase of bacterial peptidoglycan biosynthesis” (Journal of Enzyme Inhibition and Medicinal Chemistry, 2022)
# Read-outs that look alike come from different tables or passages of the source.
# Biological target: T1, E. coli DdlB enzyme (D-alanine:D-alanine ligase) (Escherichia coli, UniProt P07862)
# T1 construct: made in house; host or cells: E. coli
# Assay: biochemical
# Conditions: for remaining activity at 2300 µM: tested concentration 2.3 mM; for remaining activity at 2000 µM: tested concentration 2.0 mM; for remaining activity at 2800 µM: tested concentration 2.8 mM; for remaining activity at 2100 µM: tested concentration 2.1 mM; for remaining activity at 1900 µM: tested concentration 1.9 mM; for remaining activity at 1700 µM: tested concentration 1.7 mM; for remaining activity at 2400 µM: tested concentration 2.4 mM; for remaining activity at 2200 µM: tested concentration 2.2 mM
# [1] = residual activity, read-out: DdlB RA
# [2] = residual activity of DdlB, fragment library screening, tested concentration 2.5 mM, read-out: DdlB RA
structure (smiles),measurement,setting,value
O=S(=O)(c1ncn[nH]1)N1CCOCC1 [Compound 8013-0403],remaining activity at 2300 µM,[1],95%
CCOc1ccc2c(n1)CCN(C(=O)C1CC1)C2 [Compound S422-0032],remaining activity at 2000 µM,read-out: DdlB RA,97%
N#Cc1c2c([nH]c(=O)c1C(=O)O)CCCCCC2 [Compound 8020-6316],remaining activity at 2000 µM,read-out: DdlB RA,91%
O=C(O)[C@@H]1[C@H]2CC[C@H](CC2)[C@@H]1C(=O)NCc1ccco1 [Compound Y206-3693],remaining activity at 1800 µM,"fragment library screening, tested concentration 1.8 mM, read-out: DdlB RA",92%
Cc1cc(C(=O)O)nn1C(F)F [Compound Y503-2420],remaining activity at 2800 µM,read-out: DdlB RA,85%
Cn1c(=O)cnc2ccc(N3CCCCCC3)nc21 [Compound Z601-8402],remaining activity at 2300 µM,read-out: DdlB RA,83%
O=[N+]([O-])c1cc(S(=O)(=O)O)ccc1Cl [Compound 0195-0016],remaining activity at 2100 µM,read-out: DdlB RA,100%
CCn1nccc1C(=O)N1CC(n2ccnc2C)C1 [Compound S695-2086],remaining activity at 1900 µM,read-out: DdlB RA,95%
O=C(O)c1cc(-c2cccnc2)nc2ccccc12 [Compound Y042-7719],remaining activity at 2000 µM,"fragment library screening, read-out: DdlB RA",85%
Cc1cccc(Cc2n[nH]c(CC(=O)NC3CCCC3)n2)c1 [Compound P496-1655],remaining activity at 1700 µM,read-out: DdlB RA,97%
N=C1NC(=O)CS1 [FLD059],remaining activity at 2500 µM,[2],99%
CCOC(=O)c1ccc2oc(=O)[nH]c2c1 [Compound G373-0551],remaining activity at 2400 µM,read-out: DdlB RA,92%
Cc1nn(C(F)F)cc1S(=O)(=O)N1CCC(C)CC1 [Compound Y501-4822],remaining activity at 1900 µM,[1],97%
N#Cc1oc2ccccc2c1N [Compound 8019-4478],remaining activity at 3500 µM,"residual activity of DdlB, fragment library screening, tested concentration 3.5 mM, read-out: DdlB RA",85%
Nc1cc(O)[nH]n1 [FLD042],remaining activity at 2500 µM,[2],100%
CC1CCCN(S(=O)(=O)Cc2ccccc2)C1 (stereo not shown) [Compound Y030-1494],remaining activity at 2400 µM,read-out: DdlB RA,79%
Nc1ncccc1C(=O)O [FLD088],remaining activity at 2500 µM,read-out: DdlB RA,98%
O=C(O)c1ccn(COc2ccc(Cl)cc2Cl)n1 [Compound Y503-2333],remaining activity at 1700 µM,[1],96%
O=C(NC1CCCC1)[C@H]1CCCC[C@H]1C(=O)O [Compound Y203-9770],remaining activity at 2100 µM,read-out: DdlB RA,91%
CCn1c(C(=O)N2CCC(C(=O)O)CC2)cc2occc21 [FF01-0413],remaining activity at 1900 µM,[1],110%
COc1ccc2ncc(C(=O)O)c(O)c2c1 [Compound D284-0199],remaining activity at 2300 µM,read-out: DdlB RA,66%
Cc1c(C)c(C)c(S(=O)(=O)NC(C)C)c(C)c1C [Compound Y206-5269],remaining activity at 2200 µM,[1],77%
O=[N+]([O-])c1ccc(Cl)nc1 [FLD142],remaining activity at 2500 µM,[2],92%
Nn1cnn(Cc2ccc([N+](=O)[O-])cc2)c1=O [Compound 8012-9514],remaining activity at 2100 µM,read-out: DdlB RA,106%
"O=C(O)c1cnn2c(-c3ccc4c(c3)OCO4)ccnc12 [Compound 14, 7-(Benzo[d][1,3]dioxol-5-yl)pyrazolo[1,5-a]pyrimidine-3-carboxylic acid]",remaining activity at 500 µM,"at 0.5 mM, read-out: DdlB inhibition, RA (Residual Activity)",100%
CC(C)CCN1C[C@@H]2CN(C)C(=O)[C@H](C)N2C1=O [SB41-0167],remaining activity at 2400 µM,read-out: DdlB RA,85%
Cc1nc(N(C)C)ncc1C(=O)O [Compound C430-1216],remaining activity at 2800 µM,read-out: DdlB RA,88%
O=S(=O)(O)c1ccc(O)c2ncccc12 [Compound 4311-2142],remaining activity at 2200 µM,read-out: DdlB RA,96%
CC(=O)Oc1cccc(C(=O)O)c1 [FLD001],remaining activity at 2500 µM,[2],100%
O=C(O)c1cc(O)no1 [Compound 8020-2787],remaining activity at 3900 µM,"tested concentration 3.9 mM, read-out: DdlB RA",92%
CCn1cc(Br)c(C(=O)O)n1 [Compound Y501-6363],remaining activity at 2300 µM,[1],90%
Nc1cccc2cccc(S(=O)(=O)O)c12 [Compound 1091-0114],remaining activity at 2200 µM,read-out: DdlB RA,81%
CCCCC(CC)n1nc(O)cc1N (stereo not shown) [Compound D068-0219],remaining activity at 2500 µM,"tested concentration 2.5 mM, read-out: DdlB RA",100%
O=C(Nc1ccc(Cl)cc1)Nc1ccccc1C(=O)O [Compound Y020-0051],remaining activity at 1700 µM,[1],119%
Cc1cc(C)n(C(=O)C2CC=CCC2C(=O)O)n1 (stereo not shown) [Compound Y203-9842],remaining activity at 2000 µM,read-out: DdlB RA,90%
Cc1ccc(S(=O)(=O)N2CCc3[nH]cnc3C2)cc1 [Compound M512-0400],remaining activity at 2000 µM,[1],94%
O=C1Nc2ncccc2OC1c1ccccc1 (stereo not shown) [FF01-0341],remaining activity at 2200 µM,read-out: DdlB RA,106%
